Source: article PMC10584170, “Machine learning-based phenotypic imaging to characterise the targetable biology of Plasmodium falciparum male gametocytes for the development of transmission-blocking antimalarials” (PLOS Pathogens, 2023)
Like-named read-outs stand apart in the source and are kept apart here.

Tests used:
[1] = tested on: P. falciparum male gametocytes; assay: P. falciparum Dual Gamete Formation Assay (PfDGFA), male readout (exflagellation); format: cell-based, Plasmodium falciparum NF54; details: for Selectivity Ratio M: HepG2 Tox50 versus male IC50
Summary of the method: (§1)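 Two sex-specific readouts come from one well: male exflagellation centres recorded by brightfield video right after activation, and female gametes scored by Cy3-anti-Pfs25 fluorescence after 24 h at 28°C.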

[2] = tested on: HepG2 cells; assay: HepG2 cytotoxicity counter-screen; details: for Mean TOX: mean of the HepG2 TOX50 values; for DGFA Tox50 HepG2: HepG2 value reported with the DGFA screen; for Tox50: cytotoxic activity against HepG2 cells
[3] = tested on: P. falciparum female gametocytes; assay: P. falciparum Dual Gamete Formation Assay (PfDGFA), female readout (Pfs25-positive female gametes); format: cell-based, Plasmodium falciparum NF54; details: for Selectivity ratio F: HepG2 Tox50 versus female IC50
Summary of the method: as §1

[4] = this study, read-out: Pf DGFA IC50 MALE
[5] = this study, read-out: Pf DGFA IC50 FEM
[6] = 2µM, 24h preincubation with gametocytes, average of replicates
[7] = 2µM, 24h preincubation with gametocytes, replicate R1
[8] = 2µM, 24h preincubation with gametocytes, replicate R3
[9] = 2µM, 24h preincubation with gametocytes, replicate R4
[10] = Plasmodium falciparum, 2µM, 24h preincubation with gametocytes, average of replicates, read-out: Average inhibition male (%)
[11] = Plasmodium falciparum, 2µM, 24h preincubation with gametocytes, replicate R1, read-out: % inhibition male (individual replicates) R1
[12] = Plasmodium falciparum, 2µM, 24h preincubation with gametocytes, replicate R2, read-out: % inhibition male (individual replicates) R2
[13] = Plasmodium falciparum, 2µM, 24h preincubation with gametocytes, replicate R3, read-out: % inhibition male (individual replicates) R3
[14] = Plasmodium falciparum, 2µM, 24h preincubation with gametocytes, replicate R4, read-out: % inhibition male (individual replicates) R4
[15] = Plasmodium falciparum, PfDGFA, 24 h incubation with gametocytes before induction, exflagellation readout, read-out: Male IC50
[16] = Plasmodium falciparum, 2µM, 24h preincubation with gametocytes, average of replicates, read-out: Average inhibition female (%)
[17] = Plasmodium falciparum, 2µM, 24h preincubation with gametocytes, replicate R1, read-out: % inhibition female (individual replicates) R1
[18] = Plasmodium falciparum, 2µM, 24h preincubation with gametocytes, replicate R2, read-out: % inhibition female (individual replicates) R2
[19] = Plasmodium falciparum, 2µM, 24h preincubation with gametocytes, replicate R3, read-out: % inhibition female (individual replicates) R3
[20] = Plasmodium falciparum, 2µM, 24h preincubation with gametocytes, replicate R4, read-out: % inhibition female (individual replicates) R4
[21] = Plasmodium falciparum, PfDGFA, 24 h incubation with gametocytes before induction, female gamete readout, read-out: Female IC50

CCn1c(-c2nonc2N)nc2c(-c3ccccc3)ncc(OCCCNCCCN3CCOCC3)c21.O=C(O)C(F)(F)F [TC62] was tested, and the “Cytotox ratio Pf Male” value [1] was 11.8, the IC50 [1, 4] was 1370 nM and the “Mean TOX” value [2] was 16.12 µM. The “Cytotox ratio Pf Female” value [3] was 2.5 and the IC50 [3, 5] was 6490 nM.
With COCCn1c(Sc2ncnc3sccc23)nc2ccccc21 [TC65] the “Cytotox ratio Pf Male” value [1] was 81.3, the IC50 [1, 4] was 1230 nM and the “DGFA Tox50 HepG2” value [2] was 100 µM. For the same compound, the “Mean TOX” value [2] was 100.00 µM, the “Cytotox ratio Pf Female” value [3] was 94.3 and the IC50 [3, 5] was 1060 nM.
With CS(=O)(=O)Cc1ccc(Nc2ncc(Cl)c(Nc3cccnc3C(N)=O)n2)cc1.Cl [TC68] the “Cytotox ratio Pf Male” value [1] was 16.0, the IC50 [1, 4] was 6250 nM and the “DGFA Tox50 HepG2” value [2] was 100 µM. The “Mean TOX” value [2] was 100.00 µM and the “Cytotox ratio Pf Female” value [3] was 10.0.
With Cl.O=C1Nc2ccc3ncccc3c2/C1=C/Nc1ccc(N2CCN(CCO)CC2)cc1 [TC71] the “Cytotox ratio Pf Male” value [1] was 225.8, the IC50 [1, 4] was 150 nM and the “Mean TOX” value [2] was 33.87 µM. The “Cytotox ratio Pf Female” value [3] was 3.4.
In the case of CN(C)c1ccnc2ccc(NC(=O)Nc3ccnc4ccccc34)cc12 [TC74], the “Cytotox ratio Pf Male” value [1] is reported as 13.3, the IC50 [1, 4] is reported as 1700 nM and the “Mean TOX” value [2] is reported as 22.68 µM. The “Cytotox ratio Pf Female” value [3] was 3.8 and the IC50 [3, 5] was 5920 nM.
With CC(CO)(CO)NCc1cc2c3ccccc3c(CNC(C)(CO)CO)cc2c2ccccc12.CS(=O)(=O)O [TC76] the “Cytotox ratio Pf Male” value [1] was 15.0, the IC50 [1, 4] was 870 nM and the “Mean TOX” value [2] was 13.04 µM. The “Cytotox ratio Pf Female” value [3] was 2.7 and the IC50 [3, 5] was 4790 nM.
For CNC(=S)NN=C(C)c1ccccn1 [TCMDC-123475], the “Average inhibition male (%)” value [1, 6] was 95.4%, the “% inhibition male (individual replicates) R1” value [1, 7] was 96.5% and the “% inhibition male (individual replicates) R3” value [1, 8] was 96.2%. The “% inhibition male (individual replicates) R4” value [1, 9] was 91.6%, the “Selectivity Ratio M” value [1] was 0.29 and the IC50 ([1]; PfDGFA, 24 h incubation with gametocytes before induction, exflagellation readout, read-out: Male IC50) was 450 nM. The Tox50 [2] was 0.13 µM, the “Average inhibition female (%)” value [3, 6] was 52.8% and the “% inhibition female (individual replicates) R1” value [3, 7] was 38.7%. The “% inhibition female (individual replicates) R3” value [3, 8] was 43.6%, the “% inhibition female (individual replicates) R4” value [3, 9] was 50.7% and the “Selectivity ratio F” value [3] was 0.49. The IC50 ([3]; PfDGFA, 24 h incubation with gametocytes before induction, female gamete readout, read-out: Female IC50) was 270 nM.
With O=C1SC(=Cc2ccc(O)c(O)c2)C(=O)N1c1ccccc1 [TCMDC-123491] the “Selectivity Ratio M” value [1] was 21.44, the “Cytotox ratio Pf Male” value ([1]; Mean TOX HepG2 over DGFA IC50 MALE, GREEN = >10-fold, RED = <10-fold) was 21.4 and the inhibition at 2 µM [1, 10] was 96.8%. For the same compound, the inhibition at 2 µM [1, 11] was 96%, the inhibition at 2 µM [1, 12] was 93.5% and the inhibition at 2 µM [1, 13] was 98.6%. It also gave an inhibition at 2 µM [1, 14] of 98.9%, an IC50 [1, 15] of 1720 nM and a Tox50 [2] of 36.79 µM. For the same compound, the “Mean TOX” value [2] was 36.79 µM, the “Selectivity ratio F” value [3] was 4.36 and the “Cytotox ratio Pf Female” value ([3]; Mean TOX HepG2 over DGFA IC50 FEM, GREEN = >10-fold, RED = <10-fold) was 4.4. The inhibition at 2 µM [3, 16] was 28.5%, the inhibition at 2 µM [3, 17] was 24.6% and the inhibition at 2 µM [3, 18] was 17.5%. For the same compound, the inhibition at 2 µM [3, 19] was 26.8%, the inhibition at 2 µM [3, 20] was 45.3% and the IC50 [3, 21] was 8430 nM.
For COc1ccc(C[C@H](N)C(=O)N[C@H]2[C@@H](O)[C@H](n3cnc4c(N(C)C)ncnc43)O[C@@H]2CO)cc1 [TCMDC-123493], the “Selectivity Ratio M” value [1] was 3.72, the inhibition at 2 µM ([1]; Plasmodium falciparum, PfDGFA at 2µM, 24h preincubation with gametocytes, average of replicates, read-out: Average inhibition male (%)) was 76.8% and the inhibition at 2 µM ([1]; Plasmodium falciparum, PfDGFA at 2µM, 24h preincubation with gametocytes, replicate R1, read-out: % inhibition male (individual replicates) R1) was 75.8%. For the same compound, the inhibition at 2 µM ([1]; Plasmodium falciparum, PfDGFA at 2µM, 24h preincubation with gametocytes, replicate R2, read-out: % inhibition male (individual replicates) R2) was 91.9%, the inhibition at 2 µM ([1]; Plasmodium falciparum, PfDGFA at 2µM, 24h preincubation with gametocytes, replicate R3, read-out: % inhibition male (individual replicates) R3) was 54% and the inhibition at 2 µM ([1]; Plasmodium falciparum, PfDGFA at 2µM, 24h preincubation with gametocytes, replicate R4, read-out: % inhibition male (individual replicates) R4) was 85.6%. For the same compound, the IC50 [1, 15] was 910 nM, the HitlevelM ([1]; number of replicates with >50% inhibition in the male readout, 2µM) was 4 and the Tox50 [2] was 3.39 µM. For the same compound, the “Selectivity ratio F” value [3] was 0.66, the inhibition at 2 µM ([3]; Plasmodium falciparum, PfDGFA at 2µM, 24h preincubation with gametocytes, average of replicates, read-out: Average inhibition female (%)) was 37.8% and the inhibition at 2 µM ([3]; Plasmodium falciparum, PfDGFA at 2µM, 24h preincubation with gametocytes, replicate R1, read-out: % inhibition female (individual replicates) R1) was 41.5%. For the same compound, the inhibition at 2 µM ([3]; Plasmodium falciparum, PfDGFA at 2µM, 24h preincubation with gametocytes, replicate R2, read-out: % inhibition female (individual replicates) R2) was 55%, the inhibition at 2 µM ([3]; Plasmodium falciparum, PfDGFA at 2µM, 24h preincubation with gametocytes, replicate R3, read-out: % inhibition female (individual replicates) R3) was 20.7% and the inhibition at 2 µM ([3]; Plasmodium falciparum, PfDGFA at 2µM, 24h preincubation with gametocytes, replicate R4, read-out: % inhibition female (individual replicates) R4) was 33.9%. For the same compound, the IC50 [3, 21] was 5140 nM and the HitlevelF ([3]; number of replicates with >50% inhibition in the female readout, 2µM) was 1.
With CN(C)CCCn1c(N)c(-c2nc3ccccc3[nH]2)c2nc(C#N)c(C#N)nc21 [TCMDC-123729] the “Selectivity Ratio M” value [1] was 16, the inhibition at 2 µM [1, 10] was 100% and the inhibition at 2 µM [1, 11] was 96.8%. The inhibition at 2 µM [1, 12] was 102%, the inhibition at 2 µM [1, 13] was 97.3% and the inhibition at 2 µM [1, 14] was 104%. For the same compound, the IC50 [1, 15] was 510 nM, the Tox50 [2] was 8.13 µM and the “Selectivity ratio F” value [3] was 5.55. It also gave an inhibition at 2 µM [3, 16] of 94.8%, an inhibition at 2 µM [3, 17] of 95.1% and an inhibition at 2 µM [3, 18] of 89.6%. The inhibition at 2 µM [3, 19] was 99.5%, the inhibition at 2 µM [3, 20] was 95.1% and the IC50 [3, 21] was 1470 nM.
C=CCNc1cc(-c2ccccn2)nc(-c2ccccn2)n1 [TCMDC-123787] was tested, and the “Selectivity Ratio M” value [1] was 13.76, the inhibition at 2 µM [1, 10] was 94.8% and the inhibition at 2 µM [1, 11] was 93.1%. It also gave an inhibition at 2 µM [1, 12] of 94.1%, an inhibition at 2 µM [1, 13] of 97.8% and an inhibition at 2 µM [1, 14] of 94.1%. The IC50 [1, 15] was 910 nM, the Tox50 [2] was 12.58 µM and the “Selectivity ratio F” value [3] was 2.57. It also gave an inhibition at 2 µM [3, 16] of 33.1%, an inhibition at 2 µM [3, 17] of 29.8% and an inhibition at 2 µM [3, 18] of 30%. The inhibition at 2 µM [3, 19] was 14.9%, the inhibition at 2 µM [3, 20] was 57.6% and the IC50 [3, 21] was 4890 nM.
